Data taken from publication PMC6716783, “Agonist-induced membrane nanodomain clustering drives GLP-1 receptor responses in pancreatic beta cells” (PLoS Biology, 2019).
Ends that are not written are not given here.

Legend:
[1] = test system: GLP-1R; details: cited from earlier work
[2] = test system: SNAP-GLP-1R; assay: Palmitoylation assay, SNAP-GLP-1R; type: cell-based, human
Experimental: For the detection of palmitoylated GLP-1Rs, cells were stimulated with 100 nM of the indicated agonist for 10 min and, when appropriate, pretreated with 10 μM BETP for 5 min (and throughout the agonist stimulation period) or overnight with 200 μM of the palmitoylation inhibitor 2-BP. Isolation of palmitoylated proteins was performed with the CAPTUREome S-Palmitoylated Protein Kit (Badrilla), following the manufacturer’s instructions. […] Key steps include blocking of free thiol groups with a blocking reagent, cleavage of thioester linkages to release the palmitate group, and capture of newly liberated thiols with the CAPTUREome capture resin. Briefly, cells were lysed and free thiols blocked in the manufacturer’s blocking buffer at 40 °C for 4 h with constant vortexing. Proteins were then precipitated with cold acetone for 20 min at −20 °C. Following centrifugation at 16,000g for 5 min, the pellet was extensively washed with 70% cold acetone and resuspended in the manufacturer’s binding buffer. Approximately 10% of the soluble lysate was saved as the input fraction (IF). Prewashed CAPTUREome capture resin was added to the lysates. To this mixture, either the thioester cleavage or the acyl-preservation reagents were added. Resins were washed five times with the manufacturer’s binding buffer. […]

[3] = test system: GLP-1R; details: cited from earlier work; remark: listed apart in the source
Source text: To further elucidate the mechanism by which BETP potentiates GLP-1R responses, we examined the relative contributions of GLP-1R palmitoylation, β-arrestins, and cholesterol-dependent membrane compartmentalization to its effect.

[4] = test system: wt or C438A SNAP-GLP-1R in HEK293 cells; assay: Internalization of C438A versus wt SNAP-GLP-1R with BETP (confocal, DERET); type: cell-based, human; details: 100 nM exendin-phe1, 10 μM BETP
[5] = test system: cellular cholesterol in HEK293, CHO-K1, INS-1 832/3, MIN6B1 cells; assay: Cholesterol depletion (filipin / Amplex Red); type: cell-based; parameters: unit not given here
Experimental: Cells were treated with or without MβCD as above. For cholesterol labeling, filipin staining was carried out with the Cell-Based Cholesterol Assay Kit (Abcam). For quantification of cholesterol levels, lipid was extracted using butanol as described. Briefly, the washed cell pellet was left in 250 μl butanol overnight at 4 °C, and the organic layer was aspirated, placed in a microplate, and allowed to evaporate to dryness. The lipid film was redissolved in 1% Triton X-100, and cholesterol concentration was determined using the Amplex Red Cholesterol Assay Kit (Thermo Fisher), followed by normalization to protein content of the cell pellet determined by BCA assay.

[6] = test system: human GLP-1R (SNAP-GLP-1R) in MIN6B1 cells; assay: SNAP-GLP-1R partitioning into detergent-resistant (raft) membrane fractions; type: cell-based; details: 2 min stimulation, versus vehicle
[7] = test system: SNAP-GIPR in HEK293 cells; details: GIP 100 nM
Source text: These concentrations were selected because they provided optimum signal intensity at both measurement wavelengths. […] TR-FRET was sequentially measured after agonist addition.

[8] = test system: SNAP-GIPR in CHO-K1 cells; details: 100 nM GIP, 10 min
[9] = test system: SNAP-GLP-1R; assay: SNAP-GLP-1R internalization by confocal microscopy; type: cell-based, human
[10] = test system: SNAP-GLP-1R in HEK293 cells; assay: NR12S TR-FRET (liquid-ordered localization); type: cell-based, human; details: for concentration response with MβCD (sheet S2H): agonist not named
[11] = molecular target: T1, endogenous GLP-1R in INS-1 832/3 cells (Rattus norvegicus, UniProt P32301); assay: HTRF cAMP, wt INS-1 832/3 cells; type: cell-based; details: MβCD; wild-type INS-1 832/3 cells
T1 construct: endogenous in cells
T1 sequence (P32301 22-463): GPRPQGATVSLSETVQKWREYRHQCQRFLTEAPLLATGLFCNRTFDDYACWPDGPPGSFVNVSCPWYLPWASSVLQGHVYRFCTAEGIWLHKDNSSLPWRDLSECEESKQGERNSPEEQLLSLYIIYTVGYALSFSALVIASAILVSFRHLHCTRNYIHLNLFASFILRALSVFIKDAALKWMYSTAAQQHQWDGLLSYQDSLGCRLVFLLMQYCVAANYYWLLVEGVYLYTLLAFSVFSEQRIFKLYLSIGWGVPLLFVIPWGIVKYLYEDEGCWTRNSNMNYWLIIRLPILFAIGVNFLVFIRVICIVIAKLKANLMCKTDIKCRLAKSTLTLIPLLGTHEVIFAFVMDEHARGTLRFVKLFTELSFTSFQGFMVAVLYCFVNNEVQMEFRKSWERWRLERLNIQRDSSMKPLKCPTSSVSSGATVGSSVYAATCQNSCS
Experimental: Cells were treated in white microplates with agonist, with or without isobutylmethylxanthine (IBMX) as indicated to inhibit phosphodiesterases, for the indicated period of time before total cellular cAMP determination by HTRF (Cisbio cAMP Dynamic 2).

[12] = test system: SNAP-GIPR in INS-1 832/3 cells; assay: SNAP-GIPR internalization by confocal microscopy; type: cell-based; details: MβCD 10 mM 1 h; 100 nM GIP 1 h
Experimental: For confocal microscopy, cells were labeled at 37 °C with 1 μM of the indicated SNAP-tag fluorescent probe (New England Biolabs) in full media, stimulated with agonists for the indicated times, fixed in 4% paraformaldehyde, mounted in Prolong Diamond antifade reagent with 4,6-diamidino-2-phenylindole (Life Technologies), imaged with a Zeiss LSM-780 inverted confocal laser-scanning microscope in a ×63/1.4 numerical aperture oil-immersion objective from the Facility for Imaging by Light Microscopy (FILM) at Imperial College London, and analyzed in Fiji. […] Images were acquired with an ORCA-Flash 4.0 camera (Hamamatsu) and Metamorph software (Molecular Devices), and colocalization was measured by Manders’ coefficient analyzed using Coloc 2 plugin in Fiji.

[13] = test system: SNAP-GLP-1R in HEK293 cells; assay: Surface SNAP-GLP-1R labeling by Lumi4-Tb; type: cell-based, human; details: MβCD treatment

Molecule: CC[S+]([O-])c1nc(-c2cccc(OCc3ccccc3)c2)cc(C(F)(F)F)n1 (centres unmarked) [BETP, 4-(3-benzyloxyphenyl)-2-ethylsulfinyl-6-(trifluoromethyl)pyrimidine]
- potentiation of weak agonist GLP-1(9–36)NH2 (in words) [1]: markedly augment responses
- potentiation of weak agonist oxyntomodulin (in words) [1]: markedly augment responses
- effect on exendin-4-induced palmitoylation (in words) ([2]; CHO SNAP-GLP-1R cells, BETP 10 μM, 100 nM exendin-4 10 min): significant reduction in exendin-4-induced palmitoylation
- covalent binding site (in words) [3]: covalently bind two intracellular GLP-1R cysteine residues (347 and 438
- effect of BETP on internalization of C438A (in words) [4]: comparable to that of wild-type receptors

Molecule: CC(C)CCC[C@@H](C)[C@H]1CC[C@H]2[C@@H]3CC=C4C[C@@H](O)CC[C@]4(C)[C@H]3CC[C@]12C [Chol]
- cellular cholesterol ([5]; CHO-K1, replicate 1): 666.594
- cellular cholesterol ([5]; CHO-K1, replicate 2): 793.376
- cellular cholesterol ([5]; CHO-K1, replicate 3): 793.376
- cellular cholesterol ([5]; HEK293, replicate 1): 549.236
- cellular cholesterol ([5]; HEK293, replicate 2): 621.505
- cellular cholesterol ([5]; HEK293, replicate 3): 643.5
- cellular cholesterol ([5]; INS-1 832/3, replicate 1): 653.543
- cellular cholesterol ([5]; INS-1 832/3, replicate 2): 706.063
- cellular cholesterol ([5]; INS-1 832/3, replicate 3): 690.314
- cellular cholesterol ([5]; MIN6B1, replicate 1): 989.644
- cellular cholesterol ([5]; MIN6B1, replicate 2): 1174.28
- cellular cholesterol ([5]; MIN6B1, replicate 3): 1186.59

Molecule: CCCCCCCCCCCCCCCC(=O)O [palmitate]
- GLP-1R palmitoylation (in words) ([2]; MIN6B1 SNAP-GLP-1R cells, excess palmitate (200 μM palmitate/BSA overnight)): greatly enhanced

Molecule: GLP-1(7–36)NH2: endogenous GLP-1R agonist (HAEGTFTSDVSSYLEGQAAKEFIAWLVKGR-NH2; UniProt P01275 98-127, looked up)
- SNAP-GLP-1R raft recruitment (in words) [6]: Increased enrichment of poly-glycosylated GLP-1Rs in membrane raft fractions

Molecule: glucose-dependent insulinotropic polypeptide [GIP]
- SNAP-GIPR clustering (in words) [7]: no detectable increase upon GIP addition
- GIPR palmitoylation (in words) [8]: not further increased by GIP stimulation

Molecule: methyl-β-cyclodextrin [MβCD]
- effect on BETP-induced internalization of exendin-phe1-stimulated SNAP-GLP-1R (in words) ([9]; MIN6B1, MβCD 10 mM 1 h preincubation): inhibited this process to the same extent as for exendin-4
- effect on exendin-4-induced internalization (in words) ([9]; MβCD 10 mM 1 h, 100 nM exendin-4, 15 min, beta and nonbeta cells): marked inhibition of exendin-4-induced SNAP-GLP-1R internalization
- effect on SNAP-GLP-1R endocytosis (in words) ([9]; MβCD, wt and β-arrestin-less HEK293, 100 nM exendin-4, 15 min): substantially inhibited by MβCD irrespective of β-arrestin status
- cellular cholesterol ([5]; CHO-K1, replicate 1): 39.7439
- cellular cholesterol ([5]; CHO-K1, replicate 2): 158.5
- cellular cholesterol ([5]; CHO-K1, replicate 3): 99.7412
- cellular cholesterol ([5]; HEK293, replicate 1): 170.419
- cellular cholesterol ([5]; HEK293, replicate 2): 186.214
- cellular cholesterol ([5]; HEK293, replicate 3): 179.148
- cellular cholesterol ([5]; INS-1 832/3, replicate 1): 159.866
- cellular cholesterol ([5]; INS-1 832/3, replicate 2): 177.786
- cellular cholesterol ([5]; INS-1 832/3, replicate 3): 167.411
- cellular cholesterol ([5]; MIN6B1, replicate 1): 202.183
- cellular cholesterol ([5]; MIN6B1, replicate 2): 224.442
- cellular cholesterol ([5]; MIN6B1, replicate 3): 240.208
- effect on NR12S-linked TR-FRET (in words) ([10]; MβCD, S2H): effective in reducing both basal and exendin-4-induced NR12S-linked increases in TR-FRET
- concentration response with MβCD (sheet S2H) ([10]; log conc -6, replicate 1): 33.0955
- concentration response with MβCD (sheet S2H) ([10]; log conc -6, replicate 2): 36.4407
- concentration response with MβCD (sheet S2H) ([10]; log conc -6, replicate 3): 38.4994
- concentration response with MβCD (sheet S2H) ([10]; log conc -6.47712, replicate 1): 34.0966
- concentration response with MβCD (sheet S2H) ([10]; log conc -6.47712, replicate 2): 36.1901
- concentration response with MβCD (sheet S2H) ([10]; log conc -6.47712, replicate 3): 32.7645
- concentration response with MβCD (sheet S2H) ([10]; log conc -6.95424, replicate 2): 32.2917
- concentration response with MβCD (sheet S2H) ([10]; log conc -6.95424, replicate 3): 33.0671
- concentration response with MβCD (sheet S2H) ([10]; log conc -7.43136, replicate 1): 24.1893
- concentration response with MβCD (sheet S2H) ([10]; log conc -7.43136, replicate 2): 31.793
- concentration response with MβCD (sheet S2H) ([10]; log conc -7.90849, replicate 2): 35.2618
- concentration response with MβCD (sheet S2H) ([10]; log conc -7.90849, replicate 3): 26.4888
- concentration response with MβCD (sheet S2H) ([10]; log conc -8.38561, replicate 3): 33.8275
- concentration response with MβCD (sheet S2H) ([10]; log conc -8.86273, replicate 1): 30.8645
- concentration response with MβCD (sheet S2H) ([10]; log conc -8.86273, replicate 2): 27.0998
- concentration response with MβCD (sheet S2H) ([10]; log conc -8.86273, replicate 3): 36.96
- concentration response with MβCD (sheet S2H) ([10]; log conc -10, replicate 1): 23.1185
- concentration response with MβCD (sheet S2H) ([10]; log conc -10, replicate 2): 30.0361
- concentration response with MβCD (sheet S2H) ([10]; log conc -10, replicate 3): 37.2206
- effect on cAMP production (in words) [11]: reduced by MβCD
- effect on GIPR endocytosis (in words) [12]: virtually abolished after MβCD treatment
- effect on surface SNAP-GLP-1R expression (in words) [13]: did not alter receptor surface SNAP-GLP-1R expression
